For series [1] the following is noted: Nakagura et al. (2005); cited from earlier work.
Series [2] deals with amyotrophic lateral sclerosis. To be noted: 50 mg daily; after 15 months of treatment; cited from earlier work.
The test system of series [3] is GLT-1. Particulars: cited from earlier work; for expression of GLT-1: SOD1 mouse model of ALS.
Series [4] has as its system GLT-1. To be noted: 50 mg/kg daily IP, last 6 days of extinction training; cocaine self-administering rats; nucleus accumbens core, normalized to calnexin; FIG. 1.
The conditions of series [5]: rats; Sari et al., 2009; Knackstead et al., 2010; cited from earlier work.
Series [6] relates to cysteine-glutamate exchanger. To be noted: decreased by repeated cocaine administration; cited from earlier work.
Series [7] deals with GLT-1. To be noted: Rothstein et al., 2005; Lee et al., 2008; cited from earlier work.
The conditions of series [8]: cited from earlier work.
For a further series, the system named is planarian. To be noted: planarian model; Rawls et al., 2008; cited from earlier work.
The test system of series [9] is GLT-1. Particulars: decreased by repeated cocaine administration; cited from earlier work.

Like-named read-outs stand apart in the source and are kept apart here.

Take `CC1CC=NN1C(=O)c1cccnc1` (stereo not shown) [MS-153]: the “conditioned place preference induced by cocaine” value in series [1] is recorded as “inhibited the conditioned place preference induced by cocaine”.
For the compound `Nc1nc2ccc(OC(F)(F)F)cc2s1` [Riluzole], the “increase in life expectancy” value in [2] was 2-3 months.
For the compound `COc1ccc2c(c1)[nH]c1c(C)nccc12` [Harmine], the “expression of GLT-1” value in the series on GLT-1 [3] is on record as “increases GLT-1 expression”.
In the case of `C[C@@H](O)[C@H]1C(=O)N[C@@H]1[C@@H](C)C(=O)N1CCN(C)CC1` [MC-100093], the GLT-1 expression result with GLT-1 [4] was “restored GLT-1 expression levels to normal”.
Consider `CO/N=C(\C(=O)N[C@@H]1C(=O)N2C(C(=O)O)=C(CSc3nc(=O)c(=O)[nH]n3C)CS[C@H]12)c1csc(N)n1` [ceftriaxone], for which, in the series on GLT-1 [3], the “expression of GLT-1” value is reported as “increases the expression of GLT-1”. For the same compound, the mean survival time entry in the series with GLT-1 [3] (SOD1 mouse) was “increases the mean survival time”. Further, the “relapse to cocaine seeking” value in series [5] is “prevents relapse to cocaine seeking”. For the same compound, in [6], the cysteine-glutamate exchanger levels entry is given as “restores”. Besides, in the series with GLT-1 [7], the GLT-1 expression result is “stimulator of GLT-1 expression”. In addition, the “free, unbound cerebrospinal fluid/plasma ratio based on Cmax” value in series [8] (Chadwick et al., 1983) is 2-13%. In series [8] (Lutsar and Friedland, 2000), the “free, unbound cerebrospinal fluid/plasma ratio based on AUCs” value was 1%. Besides, the “abstinence withdrawal from cocaine” value in the series with planarian is recorded as “inhibits abstinence withdrawal from cocaine”. In the series on GLT-1 [9], the GLT-1 levels result is given as “restores”.

The record behind these values is US9975879B2, “Beta lactams as modulators of glutamate uptake and methods for use thereof” (Temple University of the Commonwealth System of Higher …, priority 2013, dated 2018).
